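Cultured in 96-well plates, cells were exposed to test compound for 48 hours across five concentrations. GI50: concentration for 50% inhibition of growth. TGI: total growth inhibition.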

One assay concerns OVCAR-3 ovarian. Kind of assay: NCI-60 cell line screen, 48 h.
`Cc1ccc(S(=O)(=O)NCCCCC(N)C(=O)O)cc1` (stereo unspecified): the TGI was greater than 100 µM.
Take `O=C(Nc1ccc(OC(F)(F)Cl)cc1)c1cnc(N2CC[C@@H](O)C2)c(-c2ccn[nH]2)c1`: the GI50 was 15 µM and the TGI turned out to be 41.4 µM.

Another assay concerns RPMI-8226 leukemia. As to the kind of experiment: NCI-60 cell line screen, 48 h.
In turn, `CCOC(=O)C1=C(NC)OCC1=O` returned a TGI greater than 100 µM.
Consider `CCc1ccc(Nc2cc(C)c3ccc(O)cc3n2)cc1`, for which the GI50 is 3.19 µM and the TGI turned out to be 20.2 µM.
With `CNCc1ccc(-c2cc(-c3nc(-c4ccc(S(=O)(=O)C(C)C)cc4)cnc3N)on2)cc1`, the GI50 was 1.31 µM and the TGI was 8.45 µM.
As for `Cc1cc(Cl)nc(N(CCNc2ccnc3cc(Cl)ccc23)Cc2ccco2)n1`, the GI50 is 1.76 µM and the TGI came out at 4.27 µM.
Take `COc1ccccc1CNCCN1C(=O)c2ccc3c4c(ccc(c24)C1=O)C(=O)N(CCNCc1ccccc1OC)C3=O`: the GI50 is 0.287 µM and the TGI was determined as 0.955 µM.
Take `CCCCCCCCCCCC[C@@H](O)[C@H]1CC[C@H]([C@H](O)CC[C@H](O)[C@@H]2CC[C@@H](CCCCCCCC3=C[C@H](C)OC3=O)O2)O1`: the GI50 was 2.45 µM and the TGI was greater than 50 µM.
Consider `CSc1nc2nc(-c3ccccc3)c(C)c-2c2n1C(C)C(=O)N2` (stereo unspecified), for which the GI50 is 16.4 µM and the TGI is greater than 100 µM.
As for `CCOC(=O)/C(=C/c1ccccn1)C(=O)c1ccccc1`, the TGI stood at 13.2 µM.
`O=C(c1ccccc1)[C@H]1Nc2ccc(Cl)cc2[C@H]2CCC[C@@H]12` displayed a TGI of 57.1 µM.
For the molecule `C=CCN(CC=C)C(=O)c1cc(C)nc2c1c(=O)n(-c1ccccc1)c(=O)n2CCCN1CCN(c2ccccc2OC)CC1`, the GI50 was greater than 50 µM and the TGI is greater than 50 µM.
Take `CCN(CC)c1ccc2nc3ccc(=[N+](CC)CC)cc-3oc2c1`: the GI50 is 0.264 µM and the TGI was 20 µM.
`Cc1ccc(S(=O)(=O)NCCCCC(N)C(=O)O)cc1` (stereo unspecified): the TGI was greater than 100 µM.
Take `O=C(Nc1ccc(OC(F)(F)Cl)cc1)c1cnc(N2CC[C@@H](O)C2)c(-c2ccn[nH]2)c1`: the GI50 is 9.44 µM and the TGI came out at 39.9 µM.

The next assay relates to SK-MEL-28 melanoma. As to the kind of experiment: NCI-60 cell line screen, 48 h.
`CCOC(=O)C1=C(NC)OCC1=O` displayed a TGI greater than 100 µM.
Turning to `CCc1ccc(Nc2cc(C)c3ccc(O)cc3n2)cc1`, the GI50 is 11.7 µM and the TGI worked out at 24.7 µM.
Regarding `CNCc1ccc(-c2cc(-c3nc(-c4ccc(S(=O)(=O)C(C)C)cc4)cnc3N)on2)cc1`, the GI50 is 1.72 µM and the TGI is 3.21 µM.
On to `Cc1cc(Cl)nc(N(CCNc2ccnc3cc(Cl)ccc23)Cc2ccco2)n1`, for which the GI50 was 1.74 µM and the TGI is 3.33 µM.
Take `COc1ccccc1CNCCN1C(=O)c2ccc3c4c(ccc(c24)C1=O)C(=O)N(CCNCc1ccccc1OC)C3=O`: the GI50 was 1.46 µM and the TGI amounted to 2.87 µM.
Consider `CCCCCCCCCCCC[C@@H](O)[C@H]1CC[C@H]([C@H](O)CC[C@H](O)[C@@H]2CC[C@@H](CCCCCCCC3=C[C@H](C)OC3=O)O2)O1`, for which the GI50 is 3.37 µM and the TGI is greater than 50 µM.
Turning to `CSc1nc2nc(-c3ccccc3)c(C)c-2c2n1C(C)C(=O)N2` (stereo unspecified), the GI50 is 43.4 µM and the TGI was greater than 100 µM.
The molecule `CCOC(=O)/C(=C/c1ccccn1)C(=O)c1ccccc1` registered a TGI of 27.3 µM.
`O=C(c1ccccc1)[C@H]1Nc2ccc(Cl)cc2[C@H]2CCC[C@@H]12` yielded a TGI of 92.6 µM.
As for `C=CCN(CC=C)C(=O)c1cc(C)nc2c1c(=O)n(-c1ccccc1)c(=O)n2CCCN1CCN(c2ccccc2OC)CC1`, the GI50 is greater than 50 µM and the TGI is greater than 50 µM.
As for `CCN(CC)c1ccc2nc3ccc(=[N+](CC)CC)cc-3oc2c1`, the GI50 is 1.5 µM and the TGI came to 27.7 µM.
On to `Cc1ccc(S(=O)(=O)NCCCCC(N)C(=O)O)cc1` (stereo unspecified), for which the TGI was greater than 100 µM.
In the case of `O=C(Nc1ccc(OC(F)(F)Cl)cc1)c1cnc(N2CC[C@@H](O)C2)c(-c2ccn[nH]2)c1`, the GI50 is 11.8 µM and the TGI is 24.9 µM.

Another assay has as its system SK-OV-3 ovarian. As to the kind of experiment: NCI-60 cell line screen, 48 h.
Molecule `CCOC(=O)C1=C(NC)OCC1=O` had a TGI greater than 100 µM.
Turning to `CCc1ccc(Nc2cc(C)c3ccc(O)cc3n2)cc1`, the GI50 is 12.6 µM and the TGI was found to be 25.2 µM.
On to `CNCc1ccc(-c2cc(-c3nc(-c4ccc(S(=O)(=O)C(C)C)cc4)cnc3N)on2)cc1`, for which the GI50 is 6.57 µM and the TGI stood at 24.7 µM.
The like results for `Cc1cc(Cl)nc(N(CCNc2ccnc3cc(Cl)ccc23)Cc2ccco2)n1` were, in that order, 2.56 µM and 7.44 µM.
`COc1ccccc1CNCCN1C(=O)c2ccc3c4c(ccc(c24)C1=O)C(=O)N(CCNCc1ccccc1OC)C3=O`: the GI50 was 1.55 µM and the TGI was found to be 3.15 µM.
In the case of `CCCCCCCCCCCC[C@@H](O)[C@H]1CC[C@H]([C@H](O)CC[C@H](O)[C@@H]2CC[C@@H](CCCCCCCC3=C[C@H](C)OC3=O)O2)O1`, the TGI was greater than 50 µM.
Regarding `CSc1nc2nc(-c3ccccc3)c(C)c-2c2n1C(C)C(=O)N2` (stereo unspecified), the GI50 is 8.43 µM and the TGI stood at 59.1 µM.
In turn, `CCOC(=O)/C(=C/c1ccccn1)C(=O)c1ccccc1` came in with a TGI of 36.7 µM.
For the molecule `C=CCN(CC=C)C(=O)c1cc(C)nc2c1c(=O)n(-c1ccccc1)c(=O)n2CCCN1CCN(c2ccccc2OC)CC1`, the GI50 is greater than 50 µM and the TGI is greater than 50 µM.
With `CCN(CC)c1ccc2nc3ccc(=[N+](CC)CC)cc-3oc2c1`, the GI50 is 0.671 µM and the TGI came to 4.75 µM.
Molecule `Cc1ccc(S(=O)(=O)NCCCCC(N)C(=O)O)cc1` (stereo unspecified) had a TGI greater than 100 µM.
Turning to `O=C(Nc1ccc(OC(F)(F)Cl)cc1)c1cnc(N2CC[C@@H](O)C2)c(-c2ccn[nH]2)c1`, the GI50 was 20.5 µM and the TGI is 44.9 µM.

Another assay relates to SNB-19 CNS. Kind of assay: NCI-60 cell line screen, 48 h.
The molecule `CCOC(=O)C1=C(NC)OCC1=O` came in with a TGI greater than 100 µM.
Take `CCc1ccc(Nc2cc(C)c3ccc(O)cc3n2)cc1`: the GI50 was 13 µM and the TGI is 32.1 µM.
Consider `CNCc1ccc(-c2cc(-c3nc(-c4ccc(S(=O)(=O)C(C)C)cc4)cnc3N)on2)cc1`, for which the GI50 was 12.1 µM and the TGI was found to be 36.8 µM.
As for `Cc1cc(Cl)nc(N(CCNc2ccnc3cc(Cl)ccc23)Cc2ccco2)n1`, the GI50 was 3.54 µM and the TGI was 16.2 µM.
Consider `CCCCCCCCCCCC[C@@H](O)[C@H]1CC[C@H]([C@H](O)CC[C@H](O)[C@@H]2CC[C@@H](CCCCCCCC3=C[C@H](C)OC3=O)O2)O1`, for which the GI50 is 9.69 µM and the TGI was greater than 50 µM.
The corresponding values for `CSc1nc2nc(-c3ccccc3)c(C)c-2c2n1C(C)C(=O)N2` (stereo unspecified) are 38.5 µM and greater than 100 µM.
For the molecule `CCOC(=O)/C(=C/c1ccccn1)C(=O)c1ccccc1`, the TGI came to 31.8 µM.
As for `O=C(c1ccccc1)[C@H]1Nc2ccc(Cl)cc2[C@H]2CCC[C@@H]12`, the TGI was greater than 100 µM.
On to `C=CCN(CC=C)C(=O)c1cc(C)nc2c1c(=O)n(-c1ccccc1)c(=O)n2CCCN1CCN(c2ccccc2OC)CC1`, for which the GI50 is greater than 50 µM and the TGI is greater than 50 µM.
Consider `CCN(CC)c1ccc2nc3ccc(=[N+](CC)CC)cc-3oc2c1`, for which the GI50 was 0.786 µM and the TGI is greater than 35.3 µM.
Molecule `Cc1ccc(S(=O)(=O)NCCCCC(N)C(=O)O)cc1` (stereo unspecified) registered a TGI greater than 100 µM.
On to `O=C(Nc1ccc(OC(F)(F)Cl)cc1)c1cnc(N2CC[C@@H](O)C2)c(-c2ccn[nH]2)c1`, for which the GI50 was 12.9 µM and the TGI was found to be 28.2 µM.

Another assay relates to TK-10 renal. As to the kind of experiment: NCI-60 cell line screen, 48 h.
`CCOC(=O)C1=C(NC)OCC1=O` registered a TGI greater than 100 µM.
As to `CCc1ccc(Nc2cc(C)c3ccc(O)cc3n2)cc1`, the GI50 is 14.1 µM and the TGI is 27.8 µM.
`CNCc1ccc(-c2cc(-c3nc(-c4ccc(S(=O)(=O)C(C)C)cc4)cnc3N)on2)cc1`: the GI50 is 10.2 µM and the TGI is 22.3 µM.
`Cc1cc(Cl)nc(N(CCNc2ccnc3cc(Cl)ccc23)Cc2ccco2)n1`: the GI50 was 2.62 µM and the TGI was found to be 8.39 µM.
Consider `COc1ccccc1CNCCN1C(=O)c2ccc3c4c(ccc(c24)C1=O)C(=O)N(CCNCc1ccccc1OC)C3=O`, for which the GI50 was 0.263 µM and the TGI turned out to be 0.735 µM.
The like results for `CCCCCCCCCCCC[C@@H](O)[C@H]1CC[C@H]([C@H](O)CC[C@H](O)[C@@H]2CC[C@@H](CCCCCCCC3=C[C@H](C)OC3=O)O2)O1` were, in that order, 1.24 µM and greater than 50 µM.
The corresponding values for `CSc1nc2nc(-c3ccccc3)c(C)c-2c2n1C(C)C(=O)N2` (stereo unspecified) are 38.1 µM and greater than 100 µM.
In the case of `CCOC(=O)/C(=C/c1ccccn1)C(=O)c1ccccc1`, the TGI was 32.3 µM.
Same read-out and setting: with `O=C(c1ccccc1)[C@H]1Nc2ccc(Cl)cc2[C@H]2CCC[C@@H]12` the figure was greater than 100 µM.
Regarding `C=CCN(CC=C)C(=O)c1cc(C)nc2c1c(=O)n(-c1ccccc1)c(=O)n2CCCN1CCN(c2ccccc2OC)CC1`, the GI50 was greater than 50 µM and the TGI was greater than 50 µM.
Take `CCN(CC)c1ccc2nc3ccc(=[N+](CC)CC)cc-3oc2c1`: the GI50 is 0.474 µM and the TGI is 3.57 µM.

Values taken from PubChem BioAssay (NCI).
